Here are results for 21 compounds from patent publication US10149839B2, “Chemical compounds” (AstraZeneca AB, priority 2016, dated 2018).

As a reminder, the solubility is the dissolved amount per volume that the medium holds. The term logD denotes the decadic logarithm of the distribution of all forms, ionised or not, between an organic phase and buffer at a given pH. High values mean a more lipophilic compound, low ones a more hydrophilic compound. Usually pIC50 stands for −log10 of the IC50, conventionally taken in molar units. A higher pIC50 goes with a small IC50.

pIC50: −log10 of the molar value. In brackets after ≈: the same amount, converted by molar mass.

Series [1] is described as follows: Thermodynamic solubility (shake flask). It counts as physicochemical. The following applies: aqueous phosphate buffer, 25 °C, pH 7.4, aqueous buffer, thermodynamic from solid, aqueous phosphate buffer pH 7.4, 24 hours.
Series [2] can be described thus: Human plasma protein binding (equilibrium dialysis). In kind it is in vitro ADME. The following applies: dialysis 18 hours.
A short description of series [3]: physchem. The following applies: 1-octanol/aqueous buffer, pH 7.4.
For series [4], the target named is Estrogen Receptor (ERα) in MCF-7 cells (Homo sapiens (Human), UniProt P03372). In words: MCF-7 ER down-regulation assay (immuno-fluorescence). In kind it is cell-based. The following applies: for pIC50: 18-22 hours incubation; for % downregulation: shown in brackets where not >90%.
Estrogen Receptor (ERα) in MCF-7 cells, sequence (P03372 whole entry): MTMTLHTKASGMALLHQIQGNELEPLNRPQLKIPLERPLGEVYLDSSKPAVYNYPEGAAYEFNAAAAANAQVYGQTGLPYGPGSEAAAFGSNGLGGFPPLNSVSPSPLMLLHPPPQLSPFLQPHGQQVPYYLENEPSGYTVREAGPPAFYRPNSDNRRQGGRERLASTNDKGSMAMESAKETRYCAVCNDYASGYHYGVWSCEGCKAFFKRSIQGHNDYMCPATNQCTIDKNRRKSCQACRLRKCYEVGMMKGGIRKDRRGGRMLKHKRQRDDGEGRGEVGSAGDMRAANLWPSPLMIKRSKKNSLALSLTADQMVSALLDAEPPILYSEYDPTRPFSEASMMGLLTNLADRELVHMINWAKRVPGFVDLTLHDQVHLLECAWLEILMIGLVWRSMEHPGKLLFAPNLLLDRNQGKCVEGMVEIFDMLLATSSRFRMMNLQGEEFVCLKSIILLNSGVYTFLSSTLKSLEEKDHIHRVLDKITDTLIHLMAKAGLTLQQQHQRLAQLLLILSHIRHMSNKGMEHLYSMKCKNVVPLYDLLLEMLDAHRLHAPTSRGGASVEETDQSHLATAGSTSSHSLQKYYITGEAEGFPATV

In the case of `C[C@@H]1Cc2c([nH]c3ccccc23)[C@@H](c2ccc(OCCNCCCF)cc2)N1CC1(F)CC1` [Example 23, 3-fluoro-N-(2-(4-((1R,3R)-2-((1-fluorocyclopropyl)methyl)-3-methyl-2,3,4,9-tetrahydro-1H-pyrido[3,4-b]indol-1-yl)phenoxy)ethyl)propan-1-amine], the solubility at 24 h in series [1] was found to be 122 µM (≈ 55.3 µg/mL). In addition, the “Human plasma protein binding (% free)” value in series [2] amounted to 1.7 % free. Also, the logD in series [3] came to 3.3.
For the compound `C[C@@H]1Cc2c([nH]c3ccccc23)[C@@H](c2ccc(OCCNCCCF)nc2)N1CC1(F)CC1` [Example 33, 3-fluoro-N-(2-((5-((1R,3R)-2-((1-fluorocyclopropyl)methyl)-3-methyl-2,3,4,9-tetrahydro-1H-pyrido[3,4-b]indol-1-yl)pyridin-2-yl)oxy)ethyl)propan-1-amine], in series [1], the solubility at 24 h came out at 244 µM (≈ 111 µg/mL). Also, in series [2], the “Human plasma protein binding (% free)” value was found to be 3.0 % free. This compound registered a logD in series [3] of 3. Besides, in series [4], the pIC50 is 8.48 and the “% downregulation” value is “(87%)”.
With `C[C@@H]1Cc2c([nH]c3ccccc23)[C@@H](c2c(F)cc(OCCNCCCF)cc2F)N1CC1(CF)COC1` [Example 72, N-(2-(3,5-difluoro-4-((1R,3R)-2-((3-(fluoromethyl)oxetan-3-yl)methyl)-3-methyl-2,3,4,9-tetrahydro-1H-pyrido[3,4-b]indol-1-yl)phenoxy)ethyl)-3-fluoropropan-1-amine], the solubility at 24 h in series [1] came to 96 µM (≈ 49.9 µg/mL). Also, the logD in series [3] was found to be 3.4.
In the case of `C[C@@H]1Cc2c([nH]c3ccccc23)[C@@H](c2ncc(OCCNCCCF)cn2)N1CC(C)(C)F` [Example 39, 3-fluoro-N-(2-((2-((1S,3R)-2-(2-fluoro-2-methylpropyl)-3-methyl-2,3,4,9-tetrahydro-1H-pyrido[3,4-b]indol-1-yl)pyrimidin-5-yl)oxy)ethyl)propan-1-amine], the solubility at 24 h in series [1] stood at 328 µM (≈ 150 µg/mL). Besides, the “Human plasma protein binding (% free)” value in series [2] was found to be 7.2 % free. For the same compound, in series [3], the logD worked out at 2.5. In addition, the pIC50 in series [4] is 6.64.
For `C[C@@H]1Cc2c([nH]c3ccccc23)[C@@H](c2ccc(OCCNCCCF)cc2C#N)N1CC1(F)CC1` [Example 29, 2-((1R,3R)-2-((1-fluorocyclopropyl)methyl)-3-methyl-2,3,4,9-tetrahydro-1H-pyrido[3,4-b]indol-1-yl)-5-(2-((3-fluoropropyl)amino)ethoxy)benzonitrile], in series [4], the pIC50 is 7.72 and the “% downregulation” value is recorded as “(57%)”.
`COc1nc(OCCNCCCF)ccc1[C@@H]1c2[nH]c3ccccc3c2C[C@@H](C)N1CC(C)(F)F` [Example 77, N-(2-((5-((1R,3R)-2-(2,2-difluoropropyl)-3-methyl-2,3,4,9-tetrahydro-1H-pyrido[3,4-b]indol-1-yl)-6-methoxypyridin-2-yl)oxy)ethyl)-3-fluoropropan-1-amine] showed a solubility at 24 h in series [1] of 108 µM (≈ 53 µg/mL). In addition, the “Human plasma protein binding (% free)” value in series [2] worked out at 0.19 % free. Moreover, the logD in series [3] is greater than 3.6. Further, in series [4], the negative logarithm of the IC50 (pIC50) is 9.15 and the “% downregulation” value is reported as “(85%)”.
On to `C[C@@H]1Cc2c([nH]c3ccccc23)[C@@H](c2cnc(OCCNCCCF)cn2)N1CC(F)F` [Example 70, N-(2-((5-((1S,3R)-2-(2,2-difluoroethyl)-3-methyl-2,3,4,9-tetrahydro-1H-pyrido[3,4-b]indol-1-yl)pyrazin-2-yl)oxy)ethyl)-3-fluoropropan-1-amine], for which, in series [1], the solubility at 24 h amounted to 607 µM (≈ 272 µg/mL). Further, the “Human plasma protein binding (% free)” value in series [2] is 11 % free. This compound also gave a pH-dependent lipophilicity (logD) in series [3] of 2.4. The compound further showed a negative-log IC50 (pIC50) in series [4] of 9.06.
The compound `C[C@@H]1Cc2c([nH]c3ccccc23)[C@@H](c2ccc(OCCNCCCF)cc2F)N1CC(C)(F)F` [Example 55, N-(2-(4-((1R,3R)-2-(2,2-difluoropropyl)-3-methyl-2,3,4,9-tetrahydro-1H-pyrido[3,4-b]indol-1-yl)-3-fluorophenoxy)ethyl)-3-fluoropropan-1-amine] registered a solubility at 24 h in series [1] of 32 µM (≈ 15.3 µg/mL). For the same compound, the logD in series [3] amounted to 4.1. In series [4], the pIC50 is 9.70 and the “% downregulation” value is “(89%)”.
In series [1], `COc1nc(NCCNCCCF)ccc1[C@@H]1c2[nH]c3ccccc3c2C[C@@H](C)N1CC(F)F` [Example 76, N1-(5-((1R,3R)-2-(2,2-difluoroethyl)-3-methyl-2,3,4,9-tetrahydro-1H-pyrido[3,4-b]indol-1-yl)-6-methoxypyridin-2-yl)-N2-(3-fluoropropyl)ethane-1,2-diamine] showed a solubility at 24 h of 335 µM (≈ 159 µg/mL). In series [3], this compound came in with a logD of 3. For the same compound, the pIC50 in series [4] was 9.49.
Turning to `COCC(C)(F)CN1[C@H](c2c(F)cc(OCCNCCCF)cc2F)c2[nH]c3ccccc3c2C[C@H]1C` (stereo partly drawn) [Example 50, N-(2-(3,5-difluoro-4-((1R,3R)-2-(2-fluoro-3-methoxy-2-methylpropyl)-3-methyl-2,3,4,9-tetrahydro-1H-pyrido[3,4-b]indol-1-yl)phenoxy)ethyl)-3-fluoropropan-1-amine], the solubility at 24 h in series [1] turned out to be 47 µM (≈ 24.5 µg/mL). In addition, the “Human plasma protein binding (% free)” value in series [2] amounted to 0.61 % free. In series [3], this compound registered a logD of 3.9.
Turning to `C[C@@H]1Cc2c([nH]c3ccccc23)[C@@H](c2ccc(OCCNCCCF)cc2)N1CC1(F)COC1` [Example 24, 3-fluoro-N-(2-(4-((1R,3R)-2-((3-fluorooxetan-3-yl)methyl)-3-methyl-2,3,4,9-tetrahydro-1H-pyrido[3,4-b]indol-1-yl)phenoxy)ethyl)propan-1-amine], the solubility at 24 h in series [1] worked out at 370 µM (≈ 174 µg/mL).
`C[C@@H]1Cc2c([nH]c3ccccc23)[C@@H](c2ccc(OCCNCCCF)cc2F)N1CC1(F)COC1` [Example 22, 3-fluoro-N-(2-(3-fluoro-4-((1R,3R)-2-((3-fluorooxetan-3-yl)methyl)-3-methyl-2,3,4,9-tetrahydro-1H-pyrido[3,4-b]indol-1-yl)phenoxy)ethyl)propan-1-amine] registered a solubility at 24 h in series [1] of 197 µM (≈ 96.1 µg/mL). The “Human plasma protein binding (% free)” value in series [2] stood at 6.1 % free. Also, the logD in series [3] stood at 3.
In turn, `COc1cc(NCCNCCCF)ncc1[C@@H]1c2[nH]c3ccccc3c2C[C@@H](C)N1CC(F)F` [Example 67, N1-(5-((1R,3R)-2-(2,2-difluoroethyl)-3-methyl-2,3,4,9-tetrahydro-1H-pyrido[3,4-b]indol-1-yl)-4-methoxypyridin-2-yl)-N2-(3-fluoropropyl)ethane-1,2-diamine] registered a solubility at 24 h in series [1] greater than 1000 µM. This compound had a pH-dependent lipophilicity (logD) in series [3] of 2.5. In series [4], the pIC50 was 9.06.
Take `COc1cc(OCCNCCCF)ccc1[C@@H]1c2[nH]c3ccccc3c2C[C@@H](C)N1CC(F)F` [Example 43, N-(2-(4-((1R,3R)-2-(2,2-Difluoroethyl)-3-methyl-2,3,4,9-tetrahydro-1H-pyrido[3,4-b]indol-1-yl)-3-methoxyphenoxy)ethyl)-3-fluoropropan-1-amine]: in series [1], the solubility at 24 h was 163 µM (≈ 77.5 µg/mL).
In series [1], `COc1cc(OCCNCCCF)ccc1[C@@H]1c2[nH]c3ccccc3c2C[C@@H](C)N1CC(F)(F)CO` [Example 58, 2,2-difluoro-3-((1R,3R)-1-(4-(2-((3-fluoropropyl)amino)ethoxy)-2-methoxyphenyl)-3-methyl-1,3,4,9-tetrahydro-2H-pyrido[3,4-b]indol-2-yl)propan-1-ol] had a solubility at 24 h of 418 µM (≈ 211 µg/mL).
`COc1cc(NCCNCCCF)ncc1[C@@H]1c2[nH]c3ccccc3c2C[C@@H](C)N1CC(C)(F)F` [Example 68, N1-(5-((1R,3R)-2-(2,2-difluoropropyl)-3-methyl-2,3,4,9-tetrahydro-1H-pyrido[3,4-b]indol-1-yl)-4-methoxypyridin-2-yl)-N2-(3-fluoropropyl)ethane-1,2-diamine] yielded a solubility at 24 h in series [1] of 438 µM (≈ 214 µg/mL). Moreover, in series [3], the logD is 3.1. For the same compound, in series [4], the pIC50 is 9.48.
In series [1], `COc1cc(NCCNCCCF)ncc1[C@@H]1c2[nH]c3ccccc3c2C[C@@H](C)N1CC(F)(F)CO` [Example 65, 2,2-difluoro-3-((1R,3R)-1-(6-((2-((3-fluoropropyl)amino)ethyl)amino)-4-methoxypyridin-3-yl)-3-methyl-1,3,4,9-tetrahydro-2H-pyrido[3,4-b]indol-2-yl)propan-1-ol] gave a solubility at 24 h of 911 µM (≈ 461 µg/mL). Moreover, the “Human plasma protein binding (% free)” value in series [2] turned out to be 14 % free. Further, the logD in series [3] stood at 2.1.
`C[C@@H]1Cc2c([nH]c3ccccc23)[C@@H](c2c(F)cc(OCCNCCCF)cc2F)N1C[C@H](F)CF` (single isomer, unassigned) [Example 15] came in with a solubility at 24 h in series [1] of 83 µM (≈ 41.1 µg/mL). Besides, the “Human plasma protein binding (% free)” value in series [2] stood at 1.5 % free. The compound further displayed a logD in series [3] of 3.4.
As for `COc1nc(NCCNCCCF)ccc1[C@@H]1c2[nH]c3ccccc3c2C[C@@H](C)N1CC(C)(F)F` [Example 78, N1-(5-((1R,3R)-2-(2,2-difluoropropyl)-3-methyl-2,3,4,9-tetrahydro-1H-pyrido[3,4-b]indol-1-yl)-6-methoxypyridin-2-yl)-N2-(3-fluoropropyl)ethane-1,2-diamine], in series [1], the solubility at 24 h was found to be 192 µM (≈ 94 µg/mL). Moreover, the pH-dependent lipophilicity (logD) in series [3] is 4. This compound also gave a pIC50 in series [4] of 9.68.
In series [1], `C[C@@H]1Cc2c([nH]c3ccccc23)[C@@H](c2c(F)cc(OCCNCCCF)cc2F)N1CC(F)F` [Example 13, N-(2-(4-((1R,3R)-2-(2,2-difluoroethyl)-3-methyl-2,3,4,9-tetrahydro-1H-pyrido[3,4-b]indol-1-yl)-3,5-difluorophenoxy)ethyl)-3-fluoropropan-1-amine] displayed a solubility at 24 h of 150 µM (≈ 72.2 µg/mL). The “Human plasma protein binding (% free)” value in series [2] came to 1.6 % free. The same compound yielded a logD in series [3] of 3.4.
Taken in the same sequence, the figures for `C[C@@H]1Cc2c([nH]c3ccccc23)[C@@H](c2c(F)cc(OCCNCCCF)cc2F)N1CC(C)(F)F` [Example 12, N-(2-(4-((1R,3R)-2-(2,2-difluoropropyl)-3-methyl-2,3,4,9-tetrahydro-1H-pyrido[3,4-b]indol-1-yl)-3,5-difluorophenoxy)ethyl)-3-fluoropropan-1-amine] were 12 µM (≈ 5.95 µg/mL), 0.61 % free and 4.1.
